Here are results for 9 compounds from patent US20110313156A1 (BOEHRINGER INGELHEIM INTERNATIONAL GMBH, priority 2008, published 2011).

For one assay, the target named is T1, ΔPH-PDK1 (aa 51-359; Q66A mutation) (Homo sapiens, UniProt O15530, Q66A).
T1 construct: a shortened PDK1 enzyme (aa 51-359; Q66A mutation) is used; His6 (N, cleaved yes)
T1 sequence (O15530 51-359 Q66A): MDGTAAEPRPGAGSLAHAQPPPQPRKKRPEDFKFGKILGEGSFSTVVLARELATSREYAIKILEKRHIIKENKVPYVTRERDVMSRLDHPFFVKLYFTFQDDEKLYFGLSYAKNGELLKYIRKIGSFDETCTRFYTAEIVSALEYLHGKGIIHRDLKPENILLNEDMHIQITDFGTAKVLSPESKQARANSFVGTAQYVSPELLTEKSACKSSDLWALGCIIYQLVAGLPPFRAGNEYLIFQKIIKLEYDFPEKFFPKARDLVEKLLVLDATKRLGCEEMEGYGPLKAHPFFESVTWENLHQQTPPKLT
The experiment in a line: PDK1 kinase assay II (shortened enzyme). Conditions: compound at 10 μM, one asterisk: incubation for 24 h, read-out: % CTL (residual activity of the enzyme relative to DMSO control). In kind it is biochemical. The method, then: Another assay was developed in which a shortened PDK1 enzyme (aa 51-359; Q66A mutation) is used that carries in the N-terminal position a His6 tag that is cleaved during purification. (ΔPH-PDK1).
The following components are combined in a well of a 96-well round-based dish (Messrs. Greiner bio-one, No. 650101): • 15 μL of compound to be tested in varying concentrations (e.g. Starting at 10 μM, and diluted in steps of 1:5) in 3.33% DMSO (final concentration 1% DMSO)/assay buffer (50 mM Tris pH 7.5, 0.05% β-mercaptoethanol, 10 mM Mg-acetate) • 15 μL (ΔPH-PDK1; 12 ng/well) and PDKtide ([…]-QEMFRDFDYIADWC) synthesised by Pepceuticals Limited, Nottingham, United Kingdom; 25 μM final concentration); (ΔPH-PDK1 and PDKtide are together diluted accordingly in assay buffer; PDKtide is present in this mixture as an 83.3 μM solution. These 30 […] are incubated for 24 h at RT before ATP solution is added. • 20 μL ATP solution (25 μM ATP with 1.0 μCi/well gamma-P33-ATP)
The reaction is started by adding the ATP solution and the mixture is incubated for 120 min at ambient temperature; at the start of the reaction the dishes are shaken gently. The reaction is stopped by the addition of 50 μL/well of 500 mM phosphoric acid (H3PO4) and incubated for about 20 min at ambient temperature. The precipitate is transferred by harvesting onto filter plates (96-well microtitre filter plate: UniFilter GF/C; Messrs Perkin Elmer; No. 6005174), then washed 6 times with 50 mM H3PO4 and dried at 60° C. Then the plate is stuck down with sealing tape, 25 μL/well of scintillation solution (Microscint 0; Messrs. Perkin Elmer; No. 6013611) are added and the amount of P33 precipitated is measured using the Wallac Betacounter. The measured data are evaluated using Graphpad Prism software.
The % CTL values indicate the residual activity of the enzyme after the addition of the inhibitory compound in the solvent DMSO in relation to the enzyme activity in the solvent DMSO without the addition of a compound (control). The majority of the values were determined using the PDK1 kinase assay III described hereinbefore. The values marked with an asterisk (* or**) were determined using the PDK1 kinase assay II described hereinbefore (one asterisk→incubation for 24 h; two asterisks→incubation for 5 min)
Regarding `Cc1c(C#CCNC(=O)c2c(C)n(C)n(Cc3ccc(F)c(F)c3)c2=O)c(=O)n(C(C)C)c2nc(Nc3ccc(N4CCOCC4)cc3)ncc12` [III-28, 2-(3,4-difluorobenzyl)-1,5-dimethyl-N-{3-[5-methyl-2-{[4-(morpholin-4-yl)phenyl]amino}-7-oxo-8-(propane-2-yl)-7,8-dihydropyrido[2,3-d]pyrimidin-6-yl]prop-2-yn-1-yl}-3-oxo-2,3-dihydro-1H-pyrazole-4-carboxamide], the remaining activity at 10 µM amounted to 13.8%.
In the case of `CN1CCC(N(C)c2ccc(Nc3ncc4cc(/C=C/CNC(=O)c5cc(Cl)nn(Cc6ccc(F)c(F)c6)c5=O)ccc4n3)cc2)CC1` [IV-40, 6-chloro-2-(3,4-difluorobenzyl)-N-{3-[2-({4-[methyl(1-methylpiperidin-4-yl)amino]phenyl}amino)quinazolin-6-yl]prop-2-en-1-yl}-3-oxo-2,3-dihydropyridazine-4-carboxamide], the remaining activity at 10 µM amounted to 25.4%.
In the case of `Cc1ncc(C(=O)NC/C=C/c2ccc3nc(Nc4ccc(N(C)C5CCN(C)CC5)cc4)ncc3c2)c(=O)n1Cc1ccc(F)c(F)c1`, the remaining activity at 10 µM was 5.8%.
Still for that read-out and setting: next, `CN(C)Cc1c[nH]c(/C=C2\C(=O)Nc3cc(/C=C/CNC(=O)c4cncn(Cc5ccc(F)c(F)c5)c4=O)ccc32)c1` [I-15, 1-(3,4-difluorobenzyl)-N-{(2E)-3-[(3Z)-3-({4-[(dimethylamino)methyl]-1H-pyrrol-2-yl}methylidene)-2-oxo-2,3-dihydro-1H-indol-6-yl]prop-2-en-1-yl}-6-oxo-1,6-dihydropyrimidine-5-carboxamide]: 15.7%; `C/C(=C\c1ccc2c(c1)NC(=O)/C2=C\c1cnc[nH]1)CNC(=O)c1cncn(Cc2ccc(F)c(F)c2)c1=O` [I-45, 1-(3,4-difluorobenzyl)-N-{(2E)-3-[(3Z)-3-(1H-imidazol-5-ylmethylidene)-2-oxo-2,3-dihydro-1H-indol-6-yl]-2-methylprop-2-en-1-yl}-6-oxo-1,6-dihydropyrimidine-5-carboxamide]: 7.9%.
On the same count and under the same terms, for `CN1CCN(c2ccc(Nc3ncc4cc(/C=C/CNC(=O)c5cncn(Cc6ccc(F)c(F)c6)c5=O)ccc4n3)cc2)CC1` [IV-4, 1-(3,4-difluorobenzyl)-N-[(2E)-3-(2-{[4-(4-methylpiperazin-1-yl)phenyl]-amino}quinazolin-6-yl)prop-2-en-1-yl]-6-oxo-1,6-dihydropyrimidine-5-carboxamide] the value was 67.3%.
Same read-out and setting: for `Cc1nc[nH]c1/C=C1\C(=O)Nc2cc(/C=C/CNC(=O)c3c(C)n(C)n(Cc4ccc(F)c(F)c4)c3=O)ccc21` [I-18, 2-(3,4-difluorobenzyl)-1,5-dimethyl-N-[(2E)-3-{(3Z)-3-[(4-methyl-1H-imidazol-5-yl)methylidene]-2-oxo-2,3-dihydro-1H-indol-6-yl}prop-2-en-1-yl]-3-oxo-2,3-dihydro-1H-pyrazole-4-carboxamide] the value was 6.6%; for `Cc1c(C(=O)NCC#Cc2cc3cnc(Nc4ccccc4)nc3n(C)c2=O)c(=O)n(Cc2ccc(F)c(F)c2)n1C` [III-23, 2-(3,4-difluorobenzyl)-1,5-dimethyl-N-{3-[8-methyl-7-oxo-2-(phenylamino)-7,8-dihydropyrido[2,3-d]pyrimidin-6-yl]prop-2-yn-1-yl}-3-oxo-2,3-dihydro-1H-pyrazole-4-carboxamide], 9.1%.

The same assay, now with this note: compound at 10 μM, two asterisks: incubation for 5 min, read-out: % CTL (residual activity of the enzyme relative to DMSO control).
Regarding `CN(C)Cc1ccc(Nc2ncc3cc(C#CCNC(=O)c4cn(C)c(=O)n(Cc5ccc(F)c(F)c5)c4=O)ccc3n2)cc1` [III-21, 3-(3,4-difluorobenzyl)-N-{3-[2-({4-[(dimethylamino)methyl]phenyl}amino)-quinazolin-6-yl]prop-2-yn-1-yl}-1-methyl-2,4-dioxo-1,2,3,4-tetrahydropyrimidine-5-carboxamide], the remaining activity at 10 µM turned out to be 33%.
